Measured values published in US10662164B2, “Non-beta lactam antibiotics” (University of Notre Dame du Lac, priority 2014, dated 2020).
≈ marks a conversion by molar mass, not a printed value. Read-outs that look alike come from different tables or passages of the source.

Tests used:
Test in all cases: MIC determination
E. faecium 106 (Van R) = type: cell-based; details: Enterococcus faecium; vancomycin-resistant clinical isolate; Tables 1 and 5; read-out: MIC
Text: (§1) The ESKAPE organisms (E. faecium NCTC (ATCC 19734), S. aureus ATCC 29213, K. pneumonia ATCC 700603, A. baumannii ATCC 17961, P. aeruginosa ATCC 17853, E. aerogenes ATCC 35029) and E. coli ATCC 25922) in the initial screen, S. aureus ATCC 27660, S. epidermis ATCC 35547, S. haemolyticus ATCC 29970, S. oralis ATCC 9811, S. pyogenes ATCC 49399, B. cereus ATCC 13061, B. licheniformis ATCC 12759, and E. faecalis ATCC 29212 were purchased from the American Type Culture Collection (Manassas, Va., USA). S. aureus strains NRS100, NRS119, NRS120, VRS1, and VRS2 were obtained from the Network on Antimicrobial Resistance in Staphylococcus aureus (Chantilly, Va., USA). E. faecalis strains 201 and 99, and E. faecium strains 119-39A and 106 were collected from Wayne State University School of Medicine.
(§2) The procedure for MIC determination was the same as previously reported (Tran et al., Am. J. Clin. Dermatol. 2015; doi 10.1007/S40257-015-0125-9).

[1] = test system: E. faecium 119-39A (Van S); type: cell-based; details: Enterococcus faecium; vancomycin-susceptible clinical isolate; Tables 1 and 5; read-out: MIC
Text: as §1, §2

[2] = test system: B. licheniformis ATCC 12759; type: cell-based; details: Bacillus licheniformis, ATCC12759; Tables 1 and 5; read-out: MIC
Text: as §1, §2

[3] = test system: S. haemolyticus ATCC 29970; type: cell-based; details: Staphylococcus haemolyticus, ATCC29970; Tables 1 and 5; read-out: MIC
Text: as §1, §2

S. aureus ATCC 27660 = type: cell-based; details: Staphylococcus aureus, ATCC27660; mecA positive, resistant to methicillin, oxacillin, tetracycline; Tables 1 and 5; read-out: MIC
Text: as §1, §2

S. aureus NRS100 (COL) = type: cell-based; details: Staphylococcus aureus, mecA positive, resistant to methicillin, oxacillin, tetracycline, Tables 1 and 5, read-out: MIC
Text: as §1, §2

B. cereus ATCC 13061 = type: cell-based; details: Bacillus cereus, ATCC13061; Tables 1 and 5; read-out: MIC
Text: as §1, §2

S. aureus VRS2 = type: cell-based; details: Staphylococcus aureus; vancomycin-resistant MRSA (vanA) isolate from Pennsylvania; Tables 1 and 5; read-out: MIC
Text: as §1, §2

S. aureus VRS1 = type: cell-based; details: Staphylococcus aureus; vancomycin-resistant MRSA (vanA) isolate from Michigan; Tables 1 and 5; read-out: MIC
Text: as §1, §2

E. faecalis 99 (Van R) = type: cell-based; details: Enterococcus faecalis; vancomycin-resistant clinical isolate; Tables 1 and 5
Text: as §1, §2

E. faecalis 201 (Van S) = type: cell-based; details: Enterococcus faecalis; vancomycin-susceptible clinical isolate; Tables 1 and 5; read-out: MIC
Text: as §1, §2

S. aureus NRS119 = type: cell-based; details: Staphylococcus aureus, mecA positive, linezolid-resistant, Tables 1 and 5, read-out: MIC
Text: as §1, §2

S. epidermis ATCC 35547 = type: cell-based; details: Tables 1 and 5; read-out: MIC
Text: as §1, §2

S. aureus NRS120 = type: cell-based; details: Staphylococcus aureus, mecA positive, linezolid-resistant, Tables 1 and 5, read-out: MIC
Text: as §1, §2

E. faecalis ATCC 29212 = type: cell-based; details: Enterococcus faecalis, ATCC29212; quality-control strain; Tables 1 and 5; read-out: MIC
Text: as §1, §2

S. aureus ATCC 29213 = type: cell-based, Staphylococcus aureus; details: for MIC: Staphylococcus aureus, read-out: MIC
E. faecium C68 = type: cell-based; details: Enterococcus faecium, vancomycin-resistant clinical strain from Cleveland hospitals, Table 5
Text: as §2

[4] = ATCC29213, S. aureus ATCC29213, second numbering, compounds of Scheme 6
[5] = ATCC29213, quality-control, methicillin-susceptible strain, Tables 1 and 5

| SMILES | MIC (E. faecium 106 (Van R)) [µg/mL] | MIC [1] [µg/mL] | MIC [2] [µg/mL] | MIC [3] [µg/mL] | MIC (S. aureus ATCC 27660) [µg/mL] | MIC (S. aureus NRS100 (COL)) [µg/mL] | MIC (B. cereus ATCC 13061) [µg/mL] | MIC (S. aureus VRS2) [µg/mL] | MIC (S. aureus VRS1) [µg/mL] | MIC (E. faecalis 99 (Van R)) [µg/mL] | MIC (E. faecalis 201 (Van S)) [µg/mL] | MIC (S. aureus NRS119) [µg/mL] | MIC (S. epidermis ATCC 35547) [µg/mL] | MIC (S. aureus NRS120) [µg/mL] | MIC (E. faecalis ATCC 29212) [µg/mL] | MIC (S. aureus ATCC 29213; [4]) [µg/mL] | MIC (S. aureus ATCC 29213; [5]) [µg/mL] | MIC (E. faecium C68) [µg/mL] | antibacterial activity in words (SAR, C/D ring derivatives) (S. aureus ATCC 29213; S. aureus ATCC29213, second numbering, compounds of Scheme 6) |
| --- | --- | --- | --- | --- | --- | --- | --- | --- | --- | --- | --- | --- | --- | --- | --- | --- | --- | --- | --- |
| Oc1ccc(-c2nc(-c3ccc(Oc4ccccc4)c(O)c3)no2)cc1 [Compound 51a, 5-(5-(4-hydroxyphenyl)-1,2,4-oxadiazol-3-yl)-2-phenoxyphenol] | 8 (≈ 23.1 µM) | 8 (≈ 23.1 µM) | 16 (≈ 46.2 µM) | 8 (≈ 23.1 µM) | 16 (≈ 46.2 µM) | 16 (≈ 46.2 µM) | 8 (≈ 23.1 µM) | 8 (≈ 23.1 µM) | 8 (≈ 23.1 µM) | 16 (≈ 46.2 µM) | 8 (≈ 23.1 µM) | 8 (≈ 23.1 µM) | 16 (≈ 46.2 µM) | 8 (≈ 23.1 µM) | 8 (≈ 23.1 µM) | 2 (≈ 5.77 µM) | 2 (≈ 5.77 µM) | 8 (≈ 23.1 µM) |  |
| Oc1ccc(-c2nc(-c3ccc(Oc4ccccc4)cc3Cl)no2)cc1 [Compound 52a, 4-(3-(2-chloro-4-phenoxyphenyl)-1,2,4-oxadiazol-5-yl)phenol] | 4 (≈ 11 µM) | 4 (≈ 11 µM) | 2 (≈ 5.48 µM) | 4 (≈ 11 µM) | 8 (≈ 21.9 µM) | 8 (≈ 21.9 µM) | 4 (≈ 11 µM) | 2 (≈ 5.48 µM) | 2 (≈ 5.48 µM) | 4 (≈ 11 µM) | 4 (≈ 11 µM) | 4 (≈ 11 µM) | 4 (≈ 11 µM) | 4 (≈ 11 µM) | 4 (≈ 11 µM) | 2 (≈ 5.48 µM) | 2 (≈ 5.48 µM) | 4 (≈ 11 µM) |  |
| [N-]=[N+]=Nc1cc(-c2noc(-c3ccc(O)cc3)n2)ccc1Oc1ccccc1 [Compound 53a, 4-(3-(3-azido-4-phenoxyphenyl)-1,2,4-oxadiazol-5-yl)phenol] | 4 (≈ 10.8 µM) | 4 (≈ 10.8 µM) | 4 (≈ 10.8 µM) | 2 (≈ 5.39 µM) | 4 (≈ 10.8 µM) | 4 (≈ 10.8 µM) | 4 (≈ 10.8 µM) | 2 (≈ 5.39 µM) | 2 (≈ 5.39 µM) | 4 (≈ 10.8 µM) | 4 (≈ 10.8 µM) | 4 (≈ 10.8 µM) | 2 (≈ 5.39 µM) | 4 (≈ 10.8 µM) | 2 (≈ 5.39 µM) |  | 2 (≈ 5.39 µM) | 4 (≈ 10.8 µM) | demonstrated activity |
